Reference: EP1027361B1, “6,11-BRIDGED ERYTHROMYCIN DERIVATIVES” (Abbott Laboratories, priority 1997, dated 1999)

Key:
Experiment in all cases: in vitro antibacterial activity, agar dilution MIC
Assay type in all cases: cell-based
[1] = system: Enterococcus faecium ATCC 8043; conditions: organism code II, BHI agar, 35-37 °C, 20 to 24 hours
Experimental: (§1) Erythromycin A was used for this purpose.
(§2) After incubation, each plate was visually inspected.

[2] = system: Escherichia coli JUHL; conditions: organism code QQ, BHI agar, 35-37 °C, 20 to 24 hours
Experimental: as §1, §2

[3] = system: Escherichia coli SS; conditions: organism code RR, BHI agar, 35-37 °C, 20 to 24 hours
Experimental: as §1, §2

[4] = system: Haemophilis Influenzae DILL AMP R; conditions: organism code WW, BHI agar, 35-37 °C, 20 to 24 hours
Experimental: as §1, §2

[5] = system: Micrococcus luteus ATCC 4698; conditions: organism code PP, BHI agar, 35-37 °C, 20 to 24 hours
Experimental: as §1, §2

[6] = system: Micrococcus luteus ATCC 9341; conditions: organism code OO, BHI agar, 35-37 °C, 20 to 24 hours
Experimental: as §1, §2

[7] = system: Nocardia Asteroides ATCC9970; conditions: organism code VV, BHI agar, 35-37 °C, 20 to 24 hours
Experimental: as §1, §2

[8] = system: Staphylococcus aureus CMX 553; conditions: organism code FF, BHI agar, 35-37 °C, 20 to 24 hours
Experimental: as §1, §2

[9] = system: Staphylococcus aureus CMX 642A; conditions: organism code DD, BHI agar, 35-37 °C, 20 to 24 hours
Experimental: as §1, §2

[10] = system: Staphylococcus epidermidis 3519; conditions: organism code HH, BHI agar, 35-37 °C, 20 to 24 hours
Experimental: as §1, §2

[11] = system: Streptococcus Pheumoniae 5649; conditions: organism code ZZA, BHI agar, 35-37 °C, 20 to 24 hours
Experimental: as §1, §2

[12] = system: Streptococcus Pheumoniae GYR 1171; conditions: organism code YY, BHI agar, 35-37 °C, 20 to 24 hours
Experimental: as §1, §2

[13] = system: Staphylococcus aureus ATCC 6538P; parameters: unit not given here; conditions: organism code AA, BHI agar, 35-37 °C, 20 to 24 hours
Experimental: as §1, §2

[14] = system: Streptococcus Pheumoniae ATCC6303; parameters: unit not given here; conditions: organism code XX, BHI agar, 35-37 °C, 20 to 24 hours
Experimental: as §1, §2

[15] = system: Streptococcus agalactiae CMX 508; parameters: unit not given here; conditions: organism code KK, BHI agar, 35-37 °C, 20 to 24 hours
Experimental: as §1, §2

[16] = system: Streptococcus bovis A-5169; parameters: unit not given here; conditions: organism code JJ, BHI agar, 35-37 °C, 20 to 24 hours
Experimental: as §1, §2

[17] = system: Streptococcus pyogenes EES61; parameters: unit not given here; conditions: organism code LL, BHI agar, 35-37 °C, 20 to 24 hours
Experimental: as §1, §2

[18] = system: Candida albicans CCH 442; conditions: organism code TT, BHI agar, 35-37 °C, 20 to 24 hours
Experimental: (§3) Representative compounds of the present invention were assayed in vitro for antibacterial activity as follows: Twelve petri dishes containing successive aqueous dilutions of the test compound mixed with 10 mL of sterilized Brain Heart Infusion (BHI) agar (Difco 0418-01-5) were prepared. Each plate was inoculated with 1:100 (or 1:10 for slow-growing strains, such as Micrococcus and Streptococcus) dilutions of up to 32 different microorganisms, using a Steers replicator block. […] In addition, a control plate, using BHI agar containing no test compound, was prepared and incubated at the beginning and end of each test
(§4) An additional plate containing a compound having known susceptibility patterns for the organisms being tested and belonging to the same antibiotic class as the test compound was also prepared and incubated as a further control, as well as to provide test-to-test comparability.
(§5) After incubation, each plate was visually inspected. The minimum inhibitory concentration (MIC) was defined as the lowest concentration of drug yielding no growth, a slight haze, or sparsely isolated colonies on the inoculum spot as compared to the growth control.

[19] = system: Escherichia coli DC-2; conditions: organism code SS, BHI agar, 35-37 °C, 20 to 24 hours
Experimental: as §3, §4, §5

[20] = system: Staphylococcus aureus 1775; conditions: organism code GG, BHI agar, 35-37 °C, 20 to 24 hours
Experimental: as §3, §4, §5

[21] = system: Staphylococcus aureus A-5278; conditions: organism code CC, BHI agar, 35-37 °C, 20 to 24 hours
Experimental: as §3, §4, §5

[22] = system: Streptococcus Pheumoniae 5979; conditions: organism code ZZ, BHI agar, 35-37 °C, 20 to 24 hours
Experimental: as §3, §4, §5

[23] = system: Streptococcus pyogenes 930; conditions: organism code MM, BHI agar, 35-37 °C, 20 to 24 hours
Experimental: as §3, §4, §5

[24] = system: Streptococcus pyogenes PIU 2548; conditions: organism code NN, BHI agar, 35-37 °C, 20 to 24 hours
Experimental: as §3, §4, §5

[25] = system: Mycobacterium smegmatis ATCC 114; parameters: unit not given here; conditions: organism code UU, BHI agar, 35-37 °C, 20 to 24 hours
Experimental: as §3, §4, §5

[26] = system: Staphylococcus aureus A5177; parameters: unit not given here; conditions: organism code BB, BHI agar, 35-37 °C, 20 to 24 hours
Experimental: as §3, §4, §5

[27] = system: Staphylococcus aureus NCTC10649M; conditions: organism code EE, BHI agar, 35-37 °C, 20 to 24 hours
Experimental: as §1, §2

Which “minimum inhibitory concentration (MIC)” value [1] does the source give for CC[C@H]1OC(=O)[C@H](C)[C@@H](O[C@H]2C[C@@](C)(OC)[C@@H](O)[C@H](C)O2)[C@H](C)[C@@H](O[C@@H]2O[C@H](C)C[C@H](N(C)C)[C@H]2O)[C@@]2(C)C[C@@H](C)C(=O)[C@H](C)[C@H]3N(CCNCc4cccc(c4)C=CCO2)C(=O)O[C@]13C [Example 11, Compound of Formula (I), 2'-R^p is H, 4"-R^p is H, m is 2, A is NH, B is-(CH2)q-, q is 1, D is 1,3-phenylene, E is-(CH2)r-CH=CH-, r is 0, n is 1] here?
The value was 0.2.

What about the “minimum inhibitory concentration (MIC)” value [2] of the same compound?
The value was over 100.

What about the “minimum inhibitory concentration (MIC)” value [3] of the same compound?
The value was 6.2.

And the “minimum inhibitory concentration (MIC)” value [4]?
Its value is 32.

What about the “minimum inhibitory concentration (MIC)” value [5] of the same compound?
Its value is 3.1.

And the “minimum inhibitory concentration (MIC)” value [6]?
Its value is 0.2.

What about the “minimum inhibitory concentration (MIC)” value [7] of the same compound?
Its value is 0.2.

And the “minimum inhibitory concentration (MIC)” value [8]?
Its value is 3.1.

What about the “minimum inhibitory concentration (MIC)” value [9] of the same compound?
Its value is 3.1.

What about the “minimum inhibitory concentration (MIC)” value [10] of the same compound?
Its value is 3.1.

What about the “minimum inhibitory concentration (MIC)” value [11] of the same compound?
Its value is 32.

And the “minimum inhibitory concentration (MIC)” value [12]?
The value was 0.25.

And the “minimum inhibitory concentration (MIC)” value [13]?
Its value is 3.1.

What about the “minimum inhibitory concentration (MIC)” value [14] of the same compound?
The value was 0.12.

What about the “minimum inhibitory concentration (MIC)” value [15] of the same compound?
The value was 0.1.

What about the “minimum inhibitory concentration (MIC)” value [16] of the same compound?
Its value is 0.1.

And the “minimum inhibitory concentration (MIC)” value [17]?
Its value is 0.2.

And the “minimum inhibitory concentration (MIC)” value [18]?
Its value is over 100.

And the “minimum inhibitory concentration (MIC)” value [19]?
The value was over 100.

What about the “minimum inhibitory concentration (MIC)” value [20] of the same compound?
The value was over 100.

And the “minimum inhibitory concentration (MIC)” value [21]?
Its value is over 100.

And the “minimum inhibitory concentration (MIC)” value [22]?
Its value is over 128.

And the “minimum inhibitory concentration (MIC)” value [23]?
Its value is over 100.

What about the “minimum inhibitory concentration (MIC)” value [24] of the same compound?
Its value is 12.5.

And the “minimum inhibitory concentration (MIC)” value [25]?
The value was 0.2.

What about the “minimum inhibitory concentration (MIC)” value [26] of the same compound?
The value was 50.

Which “minimum inhibitory concentration (MIC)” value [1] does the source give for CC[C@H]1OC(=O)[C@H](C)[C@@H](O[C@H]2C[C@@](C)(OC)[C@@H](O)[C@H](C)O2)[C@H](C)[C@@H](O[C@@H]2O[C@H](C)C[C@H](N(C)C)[C@H]2O)[C@@]2(C)C[C@@H](C)C(=O)[C@H](C)[C@H]3N(CCNC(=O)c4ccccc4C=CCO2)C(=O)O[C@]13C [Example 4, Compound of Formula (I), 2'-R^p is H, 4"-R^p is H, m is 2, A is NH, B is -C(O)-(CH2)q-, q is 0, D is 1,2-phenylene, E is-(CH2)r-CH=CH-, r is 0, n is 1] here?
The value was 0.39.

What about the “minimum inhibitory concentration (MIC)” value [2] of the same compound?
The value was 100.

And the “minimum inhibitory concentration (MIC)” value [3]?
The value was 6.2.

And the “minimum inhibitory concentration (MIC)” value [4]?
Its value is 16.

And the “minimum inhibitory concentration (MIC)” value [5]?
Its value is 1.56.

And the “minimum inhibitory concentration (MIC)” value [6]?
The value was 0.2.

And the “minimum inhibitory concentration (MIC)” value [7]?
The value was 0.2.

And the “minimum inhibitory concentration (MIC)” value [8]?
Its value is 1.56.

What about the “minimum inhibitory concentration (MIC)” value [9] of the same compound?
Its value is 1.56.

What about the “minimum inhibitory concentration (MIC)” value [10] of the same compound?
Its value is 1.56.

What about the “minimum inhibitory concentration (MIC)” value [11] of the same compound?
Its value is 16.

What about the “minimum inhibitory concentration (MIC)” value [12] of the same compound?
Its value is 0.03.

And the “minimum inhibitory concentration (MIC)” value [13]?
Its value is 1.56.

And the “minimum inhibitory concentration (MIC)” value [14]?
The value was 0.03.

What about the “minimum inhibitory concentration (MIC)” value [15] of the same compound?
The value was 0.2.

And the “minimum inhibitory concentration (MIC)” value [16]?
The value was 0.2.

What about the “minimum inhibitory concentration (MIC)” value [17] of the same compound?
Its value is 0.39.

What about the “minimum inhibitory concentration (MIC)” value [18] of the same compound?
The value was over 100.

And the “minimum inhibitory concentration (MIC)” value [19]?
The value was over 100.

And the “minimum inhibitory concentration (MIC)” value [20]?
Its value is over 100.

And the “minimum inhibitory concentration (MIC)” value [21]?
Its value is over 100.

What about the “minimum inhibitory concentration (MIC)” value [22] of the same compound?
The value was over 128.

And the “minimum inhibitory concentration (MIC)” value [23]?
The value was over 100.

What about the “minimum inhibitory concentration (MIC)” value [24] of the same compound?
The value was 12.5.

And the “minimum inhibitory concentration (MIC)” value [25]?
The value was 3.1.

What about the “minimum inhibitory concentration (MIC)” value [26] of the same compound?
The value was 25.

For CC[C@H]1OC(=O)[C@H](C)[C@@H](O[C@H]2C[C@@](C)(OC)[C@@H](O)[C@H](C)O2)[C@H](C)[C@@H](O[C@@H]2O[C@H](C)C[C@H](N(C)C)[C@H]2O)[C@](C)(O)C[C@@H](C)C(=O)[C@H](C)[C@@H](O)[C@]1(C)O [Ery. A, Erythromycin A, reference compound], which “minimum inhibitory concentration (MIC)” value [1] is on record?
The value was 0.05.

What about the “minimum inhibitory concentration (MIC)” value [2] of the same compound?
The value was over 100.

And the “minimum inhibitory concentration (MIC)” value [3]?
The value was 0.78.

And the “minimum inhibitory concentration (MIC)” value [4]?
The value was 4.

And the “minimum inhibitory concentration (MIC)” value [5]?
The value was 0.2.

And the “minimum inhibitory concentration (MIC)” value [6]?
The value was 0.05.

What about the “minimum inhibitory concentration (MIC)” value [7] of the same compound?
Its value is 0.1.

What about the “minimum inhibitory concentration (MIC)” value [8] of the same compound?
Its value is 0.39.

What about the “minimum inhibitory concentration (MIC)” value [9] of the same compound?
The value was 0.39.

What about the “minimum inhibitory concentration (MIC)” value [27] of the same compound?
The value was 0.39.

And the “minimum inhibitory concentration (MIC)” value [10]?
The value was 0.39.

What about the “minimum inhibitory concentration (MIC)” value [11] of the same compound?
Its value is 16.

What about the “minimum inhibitory concentration (MIC)” value [12] of the same compound?
Its value is 0.06.

What about the “minimum inhibitory concentration (MIC)” value [13] of the same compound?
The value was 0.2.

What about the “minimum inhibitory concentration (MIC)” value [14] of the same compound?
The value was 0.06.

What about the “minimum inhibitory concentration (MIC)” value [15] of the same compound?
The value was 0.05.

What about the “minimum inhibitory concentration (MIC)” value [16] of the same compound?
Its value is 0.02.

And the “minimum inhibitory concentration (MIC)” value [17]?
Its value is 0.05.

And the “minimum inhibitory concentration (MIC)” value [18]?
Its value is over 100.

And the “minimum inhibitory concentration (MIC)” value [19]?
Its value is over 100.

And the “minimum inhibitory concentration (MIC)” value [20]?
The value was over 100.

What about the “minimum inhibitory concentration (MIC)” value [21] of the same compound?
Its value is over 100.

And the “minimum inhibitory concentration (MIC)” value [23]?
The value was over 100.

What about the “minimum inhibitory concentration (MIC)” value [24] of the same compound?
Its value is 6.2.

What about the “minimum inhibitory concentration (MIC)” value [25] of the same compound?
Its value is 3.1.

What about the “minimum inhibitory concentration (MIC)” value [26] of the same compound?
Its value is 3.1.
